Assay results taken from paper PMC8347307, “Preclinical Bioavailability, Tissue Distribution, and Protein Binding Studies of Erinacine A, a Bioactive Compound from Hericium erinaceus Mycelia Using Validated LC-MS/MS Method” (Molecules, 2021).
Values joined by “and” are separate entries in the source; they are usually repeats but may differ in a detail not shown here. Equal values may be shown once. Read-outs that look alike come from different tables or passages of the source.

How the values were obtained:
[1] = rat, in vivo, iv, 5 mg/kg
[2] = test system: insoluble β amyloid and C-terminal fragment of amyloid precursor protein; set-up: method as in PMID 29463001; conditions: cited from earlier work
[3] = test system: nerve growth factor (NGF); set-up: method as in doi:10.1016/S0040-4039(00)76760-8; conditions: in vitro; cited from earlier work
DLD-1 xenografts = test system: DLD-1 xenografts; set-up: method as in doi:10.1016/j.jff.2015.12.031, PMID 31680958; conditions: nude mice; cited from earlier work
[4] = Stability in plasma and tissues at 37 °C for 4 h; format: in vitro ADME, Sprague-Dawley rats; conditions: data not shown
[5] = Pharmacokinetic study, erinacine A in rat plasma after oral and intravenous administration; format: in vivo, Sprague-Dawley rats
Experimental: Analysis of erinacine A concentration in samples was conducted by Agilent 1100 series HPLC system (Agilent, Waldbronn, Germany) equipped with a G1376A capillary pump and a G1313A autosampler. Chromatographic separation was carried out in an Agilent Eclipse XDB-C18 column (3.5 µm, 4.6 × 100 mm) at 25 °C. The mobile phase consists of water (A) and acetonitrile (B) with gradient elution program as follows: 0 min, 70% B; 0–5 min, 70–100% B; 5–8 min, 100% B; 8–8.1 min, 100–70% B; 8.1–11 min, 70% B. The flow rate was 0.35 mL/min and injection volume was 10 μL. Mass spectrometric detection was conducted on an API 3000 triple quadrupole instrument (Applied Biosystems, Vaughan, ON, Canada) in multiple reaction monitoring (MRM) mode with parameters as follows: nebulizer gas, 10 psi; collision gas, 2 psi; curtain gas, 7 psi; source voltage, 4.5 kV; source temperature, 275 °C. A turbo ionspray electrospray ionization (ESI) interface in positive ionization mode was used (Applied Biosystem, Foster City, CA, USA). The specific precursor to product ion transitions is [M+H] 433 → 301 for erinacine A and 197 → 169 for 2,4,5-TMBA (internal standard). Data analysis was performed with Analyst 1.4.2 software (Applied Biosystems, Concord, ON, Canada).
Before intravenous administration, animals were anesthetized with Avertin (2,2,2-Tribromoethanol, 0.071 M). Blood was collected into heparinized microtubes at scheduled time points and centrifuged at 2404× g for 10 min. The plasma (100 μL) was then mixed with equal volume of internal standard 2,4,5-TMBA (final concentration 25 ng/mL) and 300 μL of ethyl acetate. The mixture was vortexed and centrifuged at 13,845× g for 3 min. The supernatant was removed and the residue was reconstituted with isovolumetric acetonitrile for LC-MS/MS analysis. All animal procedures were approved by the Animal Care and Use Committee of Shih Chien University (IACUC#10405).
All experimental data were presented as mean ± standard deviation (mean ± SD). Maximal plasma concentration (Cmax), and time taken to achieve maximal plasma concentration (Tmax), half-life (T1/2), and area under the plasma concentration − time curve (AUC) were assessed on each animal using the software of WinNonlin (Pharsight Corp., Mountain View, CA, USA) by the non-compartmental model. Applying the pharmacokinetic data of oral administration (po) and intravenous administration (iv), the absolute bioavailability of erinacine A was calculated as [(AUCpo × Doseiv)/(AUCiv × Dosepo)] × 100%.

rat plasma = assay: Protein binding in plasma by rapid equilibrium dialysis; format: in vitro ADME, Sprague-Dawley rats
Experimental: (§1) Then, the protein binding of erinacine A in the plasma and diluted (4×) tissue homogenates (brain, heart, lung, liver, kidney, stomach, large intestine, and small intestine) was determined by rapid equilibrium dialysis devices with 8000 Da molecular weight cut-off (#89809, Thermo Fisher Scientific, Waltham, MA, USA) according to manufacturer’s guidelines. In brief, the stock solution of erinacine A prepared in methanol was spiked into blank plasma and tissues to yield a final concentration of 200 ng/mL. Two hundred microliter aliquot of spiked samples were then dialysed against 350 µL aliquot of isotonic phosphate buffered saline at 37 °C on an orbital shaker at 250 rpm for 4 h. The resulting sample and buffer dialysates were removed from the chambers, matched with an equal volume of opposite blank matrix, and analyzed by LC-MS/MS. The protein binding of erinacine A is determined by the following Equations (1) and (2):% Free = (concentration at buffer chamber/concentration at sample chamber) × 100%(1) % Bound = 100% − % Free(2)

[6] = test system: DLD-1 colorectal adenocarcinoma cells; set-up: method as in doi:10.1016/j.jff.2015.12.031, PMID 31680958; conditions: in vitro; cited from earlier work
[7] = test system: transient focal cerebral ischemia; set-up: method as in PMID 25167134; conditions: rat, intraperitoneal 1 mg/kg during the 5 days before onset of ischemia; cited from earlier work
[8] = Tissue distribution study after single oral administration; format: in vivo, Sprague-Dawley rats; conditions: for Tmax / concentration at 4 h: Sprague-Dawley, rat
Experimental: (§2) The homogenates (100 μL) were then mixed with equal volume of internal standard 2,4,5-TMBA (final concentration 25 ng/mL) and 300 μL of ethyl acetate. The mixture was vortexed and centrifuged at 13,845× g for 3 min. The supernatant was removed and the residue was reconstituted with isovolumetric acetonitrile for LC-MS/MS analysis.

[9] = test system: nerve growth factor (NGF); set-up: method as in doi:10.1016/j.nutres.2005.06.001; conditions: rats, 8 mg/kg BW for 5 weeks from birth; cited from earlier work
[10] = Excretion study, feces and urine, after single oral administration; format: in vivo, Sprague-Dawley rats
Experimental: as §2, with “[…] Feces” for “The homogenates (100 μL)”, “freeze-dried and grinded before mixing with equal volume of internal standard 2,4,5-TMBA (final concentration 25 ng/mL) and 300 μL of ethyl acetate. Urines were” for “then”

[11] = test system: diluted (4×) tissue homogenates; assay: Protein binding in diluted (4×) tissue homogenates by rapid equilibrium dialysis; format: in vitro ADME, Sprague-Dawley rats; conditions: calculated from protein binding assay with equation of ref 36
Experimental: as §1

[12] = as above; format: in vitro ADME, Sprague-Dawley rats; conditions: Sprague-Dawley, rat, 200 ng/mL, 37 °C, 4 h
Experimental: as §1

[13] = set-up: method as in PMID 31022946; conditions: rats, cited from earlier work
[14] = male, Sprague-Dawley, iv, rat plasma, I.V. erinacine A 5 mg/kg
[15] = male, Sprague-Dawley, po, rat plasma, P.O. mycelia extract 2.381 g/kg BW (equivalent to 50 mg/kg erinacine A)
[16] = 0–4 h after oral mycelia extract 2.381 g/kg BW
[17] = collected for 24 h, comparison with ref 22
[18] = unchanged erinacine A, cumulative
[19] = oral mycelia powder equivalent to 50 mg/kg BW erinacine S

CC(C)C1=C2C3=CC=C(C=O)C[C@H](O[C@@H]4OC[C@@H](O)[C@H](O)[C@H]4O)[C@]3(C)CC[C@@]2(C)CC1 [erinacine A]
Toxicity signs [1]: no toxicity signs were observed | Reduction of insoluble β amyloid and C-terminal fragment of amyloid precursor protein [2]: could reduce | Nerve growth factor (NGF) stimulation [3]: stimulated nerve growth factor (NGF) in vitro | Growth of DLD-1 xenografts (DLD-1 xenografts): inhibited | Stability in plasma and tissues [4]: no degradation was observed | AUC [5, 14]: 3120 ng·h/mL | Cmax [5, 14]: 4530 ± 3420 ng/mL | half-life [5, 14]: 0.0728 ± 0.0758 h | Tmax ([5]; male, Sprague-Dawley, po, rat plasma, P.O. H. erinaceus mycelia extract 2.381 g/kg BW (equivalent to 50 mg/kg BW erinacine A), n = 6): 6 h | AUC [5, 15]: 7620 ng·h/mL | Cmax [5, 15]: 1400 ± 1140 ng/mL | half-life [5, 15]: 8.19 ± 1.86 h | concentration at 90 min ([5]; male, Sprague-Dawley, rat, plasma, 2.381 g/kg, oral, at 90 min, read-out: Plasma concentration, first peak): 640 ng/mL | concentration at 150 min ([5]; male, Sprague-Dawley, rat, plasma, 2.381 g/kg, oral, at 150 min, read-out: Plasma concentration, second peak): 735 ng/mL | concentration at 360 min ([5]; male, Sprague-Dawley, rat, plasma, 2.381 g/kg, oral, at 360 min, read-out: Plasma concentration, third peak): 1250 ng/mL | bioavailability ([5]; male, Sprague-Dawley, rat, plasma, rats, [(AUCpo × Doseiv)/(AUCiv × Dosepo)] × 100%, po 50 mg/kg equivalent, iv 5 mg/kg, read-out: Absolute Bioavailability): 24.4% | Earliest detection in plasma after oral administration ([5]; oral mycelia powder equivalent to 50 mg/kg BW erinacine A): 1 min | Percent free in plasma (rat plasma; 200 ng/mL, 37 °C, 4 h equilibrium dialysis, n = 3): 84.00 ± 2.01% | Nonspecific binding with the plasma or tissues (rat plasma; 37 °C up to 4 h, preliminary study, data not shown): negligible | Proliferation of DLD-1 cells [6]: inhibited the proliferation | Levels of acute inflammatory cytokines and ischemia-injury-induced neuronal cell death [7]: significantly reduced | Tmax ([8]; brain, oral mycelia extract 2.381 g/kg BW, read-out: Time of peak concentration in brain): 8 h | concentration at 4 h ([8]; heart, 4 h after oral mycelia extract 2.381 g/kg BW, read-out: Concentration in heart): 1110 ± 264 ng/g | concentration at 4 h ([8]; kidney, 4 h after oral mycelia extract 2.381 g/kg BW, read-out: Concentration in kidney): 1280 ± 438 ng/g | concentration at 4 h ([8]; large intestine, 4 h after oral mycelia extract 2.381 g/kg BW, read-out: Concentration in large intestine): 726 ± 336 ng/g | concentration at 4 h ([8]; liver, 4 h after oral mycelia extract 2.381 g/kg BW, read-out: Concentration in liver): 2830 ± 641 ng/g | concentration at 4 h ([8]; lung, 4 h after oral mycelia extract 2.381 g/kg BW, read-out: Concentration in lung): 1180 ± 339 ng/g | concentration at 4 h ([8]; small intestine, 4 h after oral mycelia extract 2.381 g/kg BW, read-out: Concentration in small intestine): 25400 ± 20400 ng/g | concentration at 4 h ([8]; stomach, 4 h after oral mycelia extract 2.381 g/kg BW (50 mg/kg erinacine A), read-out: Concentration in stomach): 56500 ± 27600 ng/g | Tmax ([8]; oral mycelia extract 2.381 g/kg BW, read-out: Time of peak concentration in stomach, small intestine, large intestine, liver, heart, lung and kidney): 4 h | Maximum concentration in brain ([8]; eight hours after oral mycelia extract 2.381 g/kg BW): 0.205 ± 0.079 µg/g | Detectability in tissues at the end of 24 h ([8]; oral mycelia extract 2.381 g/kg BW): still detectable in GI tract, heart, and liver | Blood-brain barrier penetration ([8]; rats, oral mycelia extract): can penetrate the blood-brain barrier of rats by the means of passive diffusion | NGF content in hippocampus and locus coeruleus [9]: increased NGF content | Feces Concentration [10, 16]: 1.533 ± 2.625 µg/g | Urine Concentration [10, 16]: 0.248 µg/mL and 0.248 ± 0.210 µg/mL | Feces Concentration ([10]; 4–8 h): 81.853 ± 99.919 µg/g | Urine Concentration ([10]; 4–8 h): 0.118 ± 0.103 µg/mL | Feces Concentration ([10]; 8–12 h): 271.237 µg/g and 271.237 ± 404.357 µg/g | Urine Concentration ([10]; 8–12 h): 0.059 ± 0.043 µg/mL | Feces Concentration ([10]; 12–24 h): 122.824 ± 198.611 µg/g | Urine Concentration ([10]; 12–24 h): 0.055 ± 0.066 µg/mL | Feces Concentration ([10]; 24–36 h): 4.475 ± 6.477 µg/g | Urine Concentration ([10]; 24–36 h): 0.021 ± 0.037 µg/mL | Feces Concentration ([10]; 36–48 h): 0.062 ± 0.099 µg/g | Urine Concentration ([10]; 36–48 h): 0.016 ± 0.018 µg/mL | Total amount of unchanged compound in feces relative to erinacine S [10, 17]: more than 20 times | Total amount of unchanged compound in urine relative to erinacine S [10, 17]: > 2 times | Cumulative fecal excretion, % of administered dose ([10]; unchanged erinacine A): 2.823% | Cumulative urinary excretion, % of administered dose ([10]; unchanged erinacine A): 0.017% | Total Amount excreted in feces [10, 18]: 428.379 ± 368.502 µg | Total Amount excreted in urine [10, 18]: 2.604 ± 2.149 µg | Unbound brain-to-plasma concentration ratio [11]: close to unity | fraction unbound at 4 h, 200 ng/mL ([12]; diluted (4×) brain homogenate, brain homogenate, highest, read-out: Binding with the brain (% bound) (converted)): 0.711 | fraction unbound at 4 h, 200 ng/mL ([12]; diluted (4×) stomach homogenate, stomach homogenate, lowest, read-out: Binding with the stomach (% bound) (converted)): 0.883

CC(C)C1=C2[C@H]3CCC4=C(O)C(=O)[C@@]5(O)CO[C@H]6O[C@@H]([C@@H]4[C@]65O)[C@]3(C)CC[C@@]2(C)CC1 [erinacine S]
Maximum plasma concentration [13, 19]: 0.73 µg/mL | Time to reach maximum plasma concentration [13, 19]: 270.00 min | Absolute bioavailability [13]: 15.13% | Reduction of insoluble β amyloid and C-terminal fragment of amyloid precursor protein [2]: not
